Like-named read-outs stand apart in the source and are kept apart here.
Target: T1, human α7 nicotinic acetylcholine receptor (HEK cell line stably expressing human RIC-3 and human α7) (Homo sapiens, UniProt P36544)
T1 construct: host or cells: HEK cell line (PrecisION hnAChR α7/RIC-3)
Assay: Automated patch-clamp electrophysiology functional assay (Assay A), IonFlux HT, whole-cell population patch
Format: cell-based

[1] = HEK cells expressing human α7/RIC-3, test compound with or without 40 μM acetylcholine, holding potential −60 mV, room temperature, read-out: α7 nAChR Potency
[2] = automated patch-clamp electrophysiology functional assay (Assay A), read-out: α7 nAChR EC50
[3] = α7 nAChR EC50 (nM), automated patch-clamp electrophysiology functional assay (Assay A)
[4] = α7 nAChR Potency, HEK cells expressing human α7/RIC-3, test compound with or without 40 μM acetylcholine, holding potential −60 mV, room temperature

T1 sequence (P36544 23-502): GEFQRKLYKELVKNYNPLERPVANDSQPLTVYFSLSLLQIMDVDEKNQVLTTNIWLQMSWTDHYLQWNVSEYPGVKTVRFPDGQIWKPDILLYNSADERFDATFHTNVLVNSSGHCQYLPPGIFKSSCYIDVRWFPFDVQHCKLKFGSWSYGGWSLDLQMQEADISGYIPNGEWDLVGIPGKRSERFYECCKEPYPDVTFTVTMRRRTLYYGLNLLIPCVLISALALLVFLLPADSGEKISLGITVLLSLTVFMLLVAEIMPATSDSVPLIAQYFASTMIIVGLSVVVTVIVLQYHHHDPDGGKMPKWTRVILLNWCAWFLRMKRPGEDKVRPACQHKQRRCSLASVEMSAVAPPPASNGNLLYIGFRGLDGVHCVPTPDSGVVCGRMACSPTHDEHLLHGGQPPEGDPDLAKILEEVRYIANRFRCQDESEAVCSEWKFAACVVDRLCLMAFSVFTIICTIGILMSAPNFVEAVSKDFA

| Structure (SMILES) | EC50 [1] | EC50 [2] | EC50 [3] | EC50 [4] |
| --- | --- | --- | --- | --- |
| NS(=O)(=O)N1CCC2(CC1)C[C@H]2c1noc(-c2cccnc2OCC(F)(F)F)n1 [Example E59] | 100 to 500 nM | 220 nM |  |  |
| NS(=O)(=O)N1CCC2(CC1)C[C@H]2c1noc(-c2cncc(OCC(F)(F)F)c2)n1 [Example E60] | 500 to 5000 nM | 2300 nM |  |  |
| Cc1ncc(C(F)(F)F)cc1-c1nc([C@@H]2CC23CCN(S(N)(=O)=O)CC3)no1 [Example E61] | 500 to 5000 nM | 1500 nM |  |  |
| CC(C)n1nccc1-c1nc([C@@H]2CC23CCN(S(N)(=O)=O)CC3)no1 [Example E62] | 500 to 5000 nM | 1500 nM |  |  |
| NS(=O)(=O)N1CCC2(CC1)C[C@H]2c1noc(-c2ccc(OCC(F)(F)F)nc2)n1 [Example E63] | 500 to 5000 nM |  |  |  |
| Cc1cnn(C2CC2)c1-c1nc([C@@H]2CC23CCN(S(N)(=O)=O)CC3)no1 [Example E64] | 500 to 5000 nM | 520 nM |  |  |
| Cn1nc2c(c1-c1nc([C@@H]3CC34CCN(S(N)(=O)=O)CC4)no1)CCCC2 [Example E65] | 100 to 500 nM | 420 nM |  |  |
| Cn1nc2c(c1-c1nc([C@@H]3C(F)(F)C34CCN(S(N)(=O)=O)CC4)no1)CCCC2 [Example E66] | 100 to 500 nM | 120 nM |  |  |
| NS(=O)(=O)N1CCC2(CC1)[C@H](c1noc(-c3ccccn3)n1)C2(F)F [Example E67] | 500 to 5000 nM | 2100 nM |  |  |
| NS(=O)(=O)N1CCC2(CC1)[C@H](c1noc(-c3conc3C(F)(F)F)n1)C2(F)F [Example E68] | 500 to 5000 nM | 680 nM |  |  |
| NS(=O)(=O)N1CCC2(CC1)C[C@H]2c1noc(-c2cccc3c2CCC3)n1 [Example E69] | < 100 nM |  |  |  |
| NS(=O)(=O)N1CCC2(CC1)C[C@H]2c1noc(-c2cccc(-n3nccc3C(F)(F)F)c2)n1 [Example E70] | 500 to 5000 nM | 2300 nM |  |  |
| NS(=O)(=O)N1CCC2(CC1)C[C@H]2c1noc(-c2ccccc2Oc2ccccc2)n1 [Example E71] | 100 to 500 nM | 360 nM |  |  |
| NS(=O)(=O)N1CCC2(CC1)C[C@H]2c1noc(-c2ccc3c(c2)CCCC3)n1 [Example E72] | 100 to 500 nM | 110 nM |  |  |
| NS(=O)(=O)N1CCC2(CC1)C[C@H]2c1noc(-c2ccccc2-n2cccc2)n1 [Example E73] | 500 to 5000 nM | 640 nM |  |  |
| NS(=O)(=O)N1CCC2(CC1)C[C@H]2c1noc(-c2cccc(-c3ccc(F)cc3)c2)n1 [Example E74] | 100 to 500 nM |  |  |  |
| N#CC1(c2ccccc2-c2nc([C@@H]3CC34CCN(S(N)(=O)=O)CC4)no2)CC1 [Example E75] | 5000 to 50000 nM | 6300 nM |  |  |
| NS(=O)(=O)N1CCC2(CC1)C[C@H]2c1noc(-c2ccccc2-c2ncccn2)n1 [Example E76] | 500 to 5000 nM | 3200 nM |  |  |
| NS(=O)(=O)N1CCC2(CC1)C[C@H]2c1noc(-c2ccccc2-n2cccn2)n1 [Example E77] | 500 to 5000 nM | 850 nM |  |  |
| NS(=O)(=O)N1CCC2(CC1)C[C@H]2c1noc(-c2ncccc2OCC(F)(F)F)n1 [Example E78] | 500 to 5000 nM | 1200 nM |  |  |
| NS(=O)(=O)N1CCC2(CC1)C[C@H]2c1nnc(-c2ccc(F)cc2C(F)(F)F)o1 [Example F1] | 500 to 5000 nM | 1500 nM |  |  |
| NS(=O)(=O)N1CCC2(CC1)C[C@H]2c1nnc(-c2cccc(C(F)(F)F)c2)o1 [Example F2] | 500 to 5000 nM |  |  |  |
| NS(=O)(=O)N1CCC2(CC1)C[C@H]2c1nnc(-c2cccc(OC(F)(F)F)c2)o1 [Example F3] | 500 to 5000 nM | 700 nM |  |  |
| NS(=O)(=O)N1CCC2(CC1)C[C@H]2c1nnc(-c2cc(F)ccc2F)s1 [Example F4] | 500 to 5000 nM | 1100 nM |  |  |
| Cc1ccc(F)cc1-c1nnc([C@@H]2CC23CCN(S(N)(=O)=O)CC3)o1 [Example F5] | 100 to 500 nM | 420 nM |  |  |
| NS(=O)(=O)N1CCC2(CC1)C[C@H]2c1nnc(-c2ccccc2OCC(F)(F)F)o1 [Example F6] | 500 to 5000 nM | 590 nM |  |  |
| NS(=O)(=O)N1CCC2(CC1)C[C@H]2c1nnc(-c2ccccc2OCC(F)(F)F)s1 [Example F7] | 100 to 500 nM | 480 nM |  |  |
| Cc1ccccc1-c1nnc([C@@H]2CC23CCN(S(N)(=O)=O)CC3)s1 [Example F8] | 500 to 5000 nM | 750 nM |  |  |

| Structure (SMILES) | EC50 [1] | EC50 [2] | EC50 [3] | EC50 [4] |
| --- | --- | --- | --- | --- |
| NS(=O)(=O)N1CCC2(CC1)C[C@H]2c1nnc(-c2ccc(F)cc2C(F)(F)F)s1 [Example F9] | 500 to 5000 nM | 750 nM |  |  |
| NS(=O)(=O)N1CCC2(CC1)C[C@H]2c1nnc(-c2cccc(OC(F)F)c2)s1 [Example F10] |  |  | 450 nM | 100 to 500 nM |
| Cc1onc(C2CC2)c1-c1nnc([C@@H]2CC23CCN(S(N)(=O)=O)CC3)o1 [Example F11] |  |  | 410 nM | 100 to 500 nM |
| Cc1onc(C2CC2)c1-c1nnc([C@@H]2CC23CCN(S(N)(=O)=O)CC3)s1 [Example F12] | 500 to 5000 nM | 850 nM |  |  |
| Cc1ccccc1-c1nnc([C@@H]2C(F)(F)C23CCN(S(N)(=O)=O)CC3)o1 [Example F13] | 100 to 500 nM | 400 nM |  |  |
| Cc1ccccc1-c1nnc([C@@H]2C(F)(F)C23CCN(S(N)(=O)=O)CC3)s1 [Example F14] | 100 to 500 nM | 290 nM |  |  |
| NS(=O)(=O)N1CCC2(CC1)C[C@H]2c1nc(-c2ccccc2)co1 [Example G1] | 500 to 5000 nM | 4000 nM |  |  |
| NS(=O)(=O)N1CCC2(CC1)C[C@H]2c1csc(-c2conc2C2CC2)n1 [Example G2] | 500 to 5000 nM | 910 nM |  |  |
| Cc1noc(C)c1-n1cc([C@@H]2CC23CCN(S(N)(=O)=O)CC3)cn1 [Example G3] | 500 to 5000 nM |  |  |  |
| NS(=O)(=O)N1CCC2(CC1)[C@H](c1csc(-c3conc3C3CC3)n1)C2(F)F [Example G4] | 100 to 500 nM | 110 nM |  |  |
| NS(=O)(=O)N1CCC2(CC1)[C@H](c1ncc(-c3ccc(F)cc3C(F)(F)F)o1)C2(F)F [Example G5] | < 100 nM | 91 nM |  |  |
| NS(=O)(=O)N1CCC2(CC1)[C@H](c1cc(-c3ccnc(OC(F)F)c3)no1)C2(F)F [Example G6] | < 100 nM | 86 nM |  |  |
| Cn1cc(-c2conc2C2CC2)nc1[C@@H]1C(F)(F)C12CCN(S(N)(=O)=O)CC2 [Example G7] | 500 to 5000 nM | 1600 nM |  |  |
| NS(=O)(=O)N1CCC2(CC1)[C@H](c1cc(-c3conc3C3CC3)no1)C2(F)F [Example G8] | < 100 nM | 16 nM |  |  |
| NS(=O)(=O)N1CCC2(CC1)[C@H](c1cc(-c3ccc(F)cc3C(F)(F)F)on1)C2(F)F [Example G9] | < 100 nM | 78 nM |  |  |
| NS(=O)(=O)N1CCC2(CC1)[C@H](c1nc(-c3ccc(F)cc3C(F)(F)F)co1)C2(F)F [Example G10] | < 100 nM | 28 nM |  |  |
| NS(=O)(=O)N1CCC2(CC1)[C@H](c1cc(-c3ccc(F)cc3C(F)(F)F)ns1)C2(F)F [Example G11] | 100 to 500 nM | 120 nM |  |  |
| COc1ccc(Cl)cc1-c1noc([C@H]2CC23CCN(S(N)(=O)=O)CC3)n1 [Example H1] | 5000 to 50000 nM |  |  |  |
| NS(=O)(=O)N1CCC2(CC1)[C@@H](c1nc(-c3ccc(F)cc3C(F)(F)F)no1)C2(F)F [Example H2] | 500 to 5000 nM | 2900 nM |  |  |
| NS(=O)(=O)N1CCC2(CC1)[C@@H](c1nc(C3CCCCC3)no1)C2(F)F [Example H3] | 500 to 5000 nM | 4500 nM |  |  |
| NS(=O)(=O)N1CCC2(CC1)[C@@H](c1nc(-c3cccc(F)c3)no1)C2(F)F [Example H4] | 500 to 5000 nM | 1200 nM |  |  |
| Cc1ccccc1-c1noc([C@H]2C(F)(F)C23CCN(S(N)(=O)=O)CC3)n1 [Example H5] | 500 to 5000 nM |  |  |  |
| Cc1ccccc1-c1nnc([C@H]2C(F)(F)C23CCN(S(N)(=O)=O)CC3)s1 [Example H6] | 500 to 5000 nM | 3400 nM |  |  |
| NS(=O)(=O)N1CCC2(C(F)C1)C(c1nc(-c3ccc(F)cc3C(F)(F)F)no1)C2(F)F (stereo not drawn) [Example I15] | 500 to 5000 nM | 1400 nM |  |  |
| NS(=O)(=O)N1CCC2(C(F)C1)C(c1nc(-c3ccc(F)cc3C(F)(F)F)no1)C2(F)F (stereo not drawn) [Example I16] | 500 to 5000 nM | 2100 nM |  |  |
| NS(=O)(=O)N1CCC2(C(F)C1)C(c1nc(-c3ccc(F)cc3C(F)(F)F)no1)C2(F)F (stereo not drawn) [Example I17] | 500 to 5000 nM |  |  |  |
| NS(=O)(=O)N1CCC2(C(F)C1)C(c1nc(-c3ccc(F)cc3C(F)(F)F)no1)C2(F)F (stereo not drawn) [Example I18] | 100 to 500 nM | 320 nM |  |  |
